Results from PMC6430685 (Nature chemical biology, 2019).

Target: BAX (Homo sapiens, UniProt Q07812)
Assay type: biochemical

Sequence of BAX (Q07812 whole entry): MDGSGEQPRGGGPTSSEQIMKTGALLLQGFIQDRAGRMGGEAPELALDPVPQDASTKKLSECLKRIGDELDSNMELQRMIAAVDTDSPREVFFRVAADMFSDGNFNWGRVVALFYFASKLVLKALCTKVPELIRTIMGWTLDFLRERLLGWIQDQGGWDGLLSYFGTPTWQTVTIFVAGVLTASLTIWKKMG

OC(CN1CCNCC1)Cn1c2ccccc2c2ccccc21 (stereo not shown) [BAI3]
fold lower activity compared to BAI1: ~ 7 fold
